Measurements reported in ChEMBL document CHEMBL4043108, “Identification of galiellalactone-based novel STAT3-selective inhibitors with cytotoxic activities against triple-negative breast cancer cell lines” (Bioorg Med Chem, 2017).
Active and inactive are the calls of the source. No cut-off for these calls is given here.

Tests used:
[1] = system: MDA-MB-468; assay: Cytotoxic activity against human MDA-MB-468 cells incubated for 24 hrs by MTT assay; type: functional, cell-based; conditions: MDA-MB-468, 24 h
[2] = system: MDA-MB-231; assay: Cytotoxic activity against human MDA-MB-231 cells incubated for 24 hrs by MTT assay; type: functional, cell-based; conditions: MDA-MB-231, 24 h
[3] = system: BT-549; assay: Cytotoxic activity against human BT549 cells incubated for 24 hrs by MTT assay; type: functional, cell-based; conditions: BT-549, 24 h
[4] = target: Signal transducer and activator of transcription 3 (Homo sapiens) (UniProt P40763); assay: Inhibition of STAT3 transcriptional activity in human MDA-MB-468 cells at 5 uM incubated for 24 hrs by STAT3-dependent luciferase reporter assay; type: cell-based
Chain of Signal transducer and activator of transcription 3 (Homo sapiens) (P40763 whole entry): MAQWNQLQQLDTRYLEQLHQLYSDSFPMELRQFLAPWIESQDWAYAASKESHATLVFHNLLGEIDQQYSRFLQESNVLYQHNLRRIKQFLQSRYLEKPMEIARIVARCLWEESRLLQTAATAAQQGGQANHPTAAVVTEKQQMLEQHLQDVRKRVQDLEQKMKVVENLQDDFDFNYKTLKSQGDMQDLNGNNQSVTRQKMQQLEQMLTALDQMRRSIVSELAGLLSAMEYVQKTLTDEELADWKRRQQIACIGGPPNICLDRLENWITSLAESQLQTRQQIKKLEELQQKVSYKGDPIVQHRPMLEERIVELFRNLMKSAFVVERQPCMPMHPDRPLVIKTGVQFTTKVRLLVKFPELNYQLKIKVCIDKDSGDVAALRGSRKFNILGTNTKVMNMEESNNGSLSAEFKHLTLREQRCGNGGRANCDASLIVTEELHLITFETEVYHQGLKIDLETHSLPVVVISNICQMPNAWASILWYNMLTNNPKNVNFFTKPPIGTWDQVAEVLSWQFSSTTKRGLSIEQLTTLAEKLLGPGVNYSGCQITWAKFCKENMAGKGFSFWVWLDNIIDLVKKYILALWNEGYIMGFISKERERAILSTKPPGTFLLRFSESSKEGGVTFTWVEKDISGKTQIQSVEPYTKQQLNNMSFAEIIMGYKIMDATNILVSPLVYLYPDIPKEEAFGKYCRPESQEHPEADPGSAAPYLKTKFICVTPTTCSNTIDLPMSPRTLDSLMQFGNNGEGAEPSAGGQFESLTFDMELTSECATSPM

[5] = target: Signal transducer and activator of transcription 3 (Homo sapiens) (UniProt P40763); assay: Inhibition of STAT3 Tyr705 phosphorylation in human MDA-MB-468 cells at 5 and 10 uM incubated for 4 hrs by Western blot; type: cell-based
[6] = target: Signal transducer and activator of transcription 3 (Homo sapiens) (UniProt P40763); assay: Inhibition of STAT3 Ser727 phosphorylation in human MDA-MB-468 cells at 5 and 10 uM incubated for 4 hrs by Western blot; type: cell-based
[7] = target: T1, Signal transducer and activator of transcription 1-alpha/beta (Homo sapiens) (UniProt P42224); assay: Inhibition of STAT1 Tyr701 phosphorylation in human MDA-MB-468 cells at 5 and 10 uM incubated for 4 hrs by Western blot; type: cell-based
T1 sequence (whole entry): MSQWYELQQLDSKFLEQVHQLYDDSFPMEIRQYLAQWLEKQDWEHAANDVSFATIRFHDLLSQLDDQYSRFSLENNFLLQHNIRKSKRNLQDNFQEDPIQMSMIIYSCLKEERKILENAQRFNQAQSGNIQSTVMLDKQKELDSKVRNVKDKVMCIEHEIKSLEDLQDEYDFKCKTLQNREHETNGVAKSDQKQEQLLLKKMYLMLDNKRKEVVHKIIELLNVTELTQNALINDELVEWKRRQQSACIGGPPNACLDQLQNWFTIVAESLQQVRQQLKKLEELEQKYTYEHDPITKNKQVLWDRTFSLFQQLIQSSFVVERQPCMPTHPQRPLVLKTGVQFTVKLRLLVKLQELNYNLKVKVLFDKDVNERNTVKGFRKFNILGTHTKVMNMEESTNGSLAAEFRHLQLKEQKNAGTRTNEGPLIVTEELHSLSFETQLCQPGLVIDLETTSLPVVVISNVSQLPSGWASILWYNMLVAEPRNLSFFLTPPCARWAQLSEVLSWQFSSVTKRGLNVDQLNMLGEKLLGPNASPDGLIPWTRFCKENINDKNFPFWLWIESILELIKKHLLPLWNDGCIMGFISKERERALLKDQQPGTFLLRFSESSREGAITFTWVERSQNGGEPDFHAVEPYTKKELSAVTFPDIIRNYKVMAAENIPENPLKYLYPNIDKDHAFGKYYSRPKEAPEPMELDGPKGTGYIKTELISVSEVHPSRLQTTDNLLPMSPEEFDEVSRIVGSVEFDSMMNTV

[8] = system: MDA-MB-468; assay: Effect on total STAT3 protein level in human MDA-MB-468 cells at 5 and 10 uM incubated for 4 hrs by Western blot; type: cell-based; conditions: mda-mb-468, 4 h
[9] = system: MDA-MB-468; assay: Effect on total STAT1 protein level in human MDA-MB-468 cells at 5 and 10 uM incubated for 4 hrs by Western blot; type: cell-based; conditions: mda-mb-468, 4 h
[10] = Toxicity in human MDA-MB-468 cells assessed as cell viability at 5 uM incubated for 24 hrs by MTT assay (reference value: 100%); type: cell-based; conditions: read-out: Activity
[11] = Toxicity in human MDA-MB-468 cells assessed as cell viability at 10 uM incubated for 24 hrs by MTT assay (reference value: 100%); type: cell-based; conditions: read-out: Activity
[12] = target: T2, Signal transducer and activator of transcription 5A (Homo sapiens) (UniProt P42229); assay: Inhibition of STAT5 Tyr694 phosphorylation in human MDA-MB-468 cells at 5 and 10 uM incubated for 4 hrs by Western blot; type: cell-based
T2 sequence (whole entry): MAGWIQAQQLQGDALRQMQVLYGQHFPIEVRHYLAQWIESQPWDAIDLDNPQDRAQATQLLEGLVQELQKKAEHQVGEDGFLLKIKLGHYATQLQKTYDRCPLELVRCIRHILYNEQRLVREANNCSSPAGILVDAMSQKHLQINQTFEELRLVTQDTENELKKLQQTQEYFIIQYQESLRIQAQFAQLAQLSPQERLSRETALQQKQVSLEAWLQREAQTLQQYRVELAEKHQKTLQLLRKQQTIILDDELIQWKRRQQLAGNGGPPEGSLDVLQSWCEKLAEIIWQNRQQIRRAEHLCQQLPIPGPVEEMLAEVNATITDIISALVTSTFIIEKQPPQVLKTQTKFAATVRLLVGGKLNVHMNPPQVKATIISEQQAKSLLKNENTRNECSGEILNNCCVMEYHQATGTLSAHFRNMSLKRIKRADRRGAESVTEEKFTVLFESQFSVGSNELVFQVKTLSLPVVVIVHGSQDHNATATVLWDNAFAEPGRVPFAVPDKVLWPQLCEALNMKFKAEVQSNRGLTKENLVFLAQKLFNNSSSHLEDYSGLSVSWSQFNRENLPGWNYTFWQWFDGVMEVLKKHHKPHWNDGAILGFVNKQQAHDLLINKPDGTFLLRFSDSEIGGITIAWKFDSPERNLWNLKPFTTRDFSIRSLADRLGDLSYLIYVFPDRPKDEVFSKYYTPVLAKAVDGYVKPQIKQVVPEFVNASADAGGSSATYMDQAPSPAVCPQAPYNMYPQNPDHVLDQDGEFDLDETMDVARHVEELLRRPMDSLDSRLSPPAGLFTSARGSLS

Row | inhibition [4] | inhibition [5] | inhibition [6] | inhibition [7] | inhibition [12] | SMILES | IC50 [1] [µM] | IC50 [2] [µM] | IC50 [3] [µM] | Activity [8] | Activity [9] | viability at 24 h, 5 µM [10] [%] | viability at 24 h, 10 µM [11] [%]
1 | Active |  |  |  |  | C=C1C(=O)O[C@@H]2CC[C@H](CBr)[C@]12OCC | 7.81 | 9.11 | 5.7 |  |  |  | 
2 | inactive |  |  |  |  | C=C1C(=O)O[C@@H]2CC[C@H](CO)[C@]12OC | > 50 | > 50 | > 50 |  |  |  | 
3 | inactive |  |  |  |  | C=C1C(=O)O[C@@H]2CC[C@H](COC)[C@]12OC | > 50 | > 50 | > 50 |  |  |  | 
4 | Active | Dose-dependent effect | inactive | inactive |  | C=C1C(=O)O[C@@H]2CC[C@H](CBr)[C@]12O | 11.8 | 12.1 | 9.63 | Non-Toxic | Non-Toxic | 100 | 98
5 | Active | Dose-dependent effect | inactive | inactive |  | C=C1C(=O)O[C@@H]2CC[C@H](CBr)[C@]12OC | 7.91 | 8.63 | 6.61 | Non-Toxic | Non-Toxic | 98 | 93
6 | inactive |  |  |  |  | C=C1C(=O)O[C@@H]2CC[C@H](COC)[C@]12O | > 50 | > 50 | 37.9 |  |  |  | 
7 | inactive |  |  |  |  | O=C1O[C@@H]2CC[C@H](CBr)[C@]2(O)[C@]12CO2 | > 50 | > 50 | > 50 |  |  |  | 
8 | inactive |  |  |  |  | C[C@@H]1C(=O)O[C@@H]2CC[C@H](CBr)[C@]12O | > 50 | > 50 | > 50 |  |  |  | 

Further lines, the compound ahead of its results:

Row | SMILES | inhibition [4] | inhibition [5] | inhibition [6] | inhibition [7] | inhibition [12] | IC50 [1] [µM] | IC50 [2] [µM] | IC50 [3] [µM] | Activity [8] | Activity [9] | viability at 24 h, 5 µM [10] [%] | viability at 24 h, 10 µM [11] [%]
9 | C=C[C@@H](C)[C@H](O)[C@H]1CC[C@H]2CC(=O)C(=C)[C@]21O | inactive |  |  |  |  | > 50 | > 50 | > 50 |  |  |  | 
10 | C=C1C(=O)O[C@@H]2CC[C@H](CI)[C@]12O |  |  |  |  |  | 23.6 | 26 | 17.3 |  |  |  | 
11 | C[C@H]1C=C2C(=O)O[C@@H]3CC[C@H]([C@@H]1O)[C@]23O | inactive |  |  |  |  | > 50 | > 50 | > 50 |  |  |  | 
12 | O=C1O[C@@H]2CC[C@@H]3[C@@H](O)CC=C1[C@@]32O | inactive |  |  |  |  | > 50 | > 50 | > 50 |  |  |  | 
13 | C=C1C(=O)O[C@@H]2CC[C@H](CBr)[C@H]12 |  |  |  |  |  | 42.6 | 33.3 | 24.7 |  |  |  | 
14 | C=C1C(=O)O[C@@H]2CC[C@H](CBr)[C@]12OC(C)=O |  |  |  |  |  | > 50 | > 50 | > 50 |  |  |  | 
15 | C=C[C@H](C)[C@@H](O)[C@H]1CC[C@H]2CC(=O)C(=C)[C@]21O | inactive |  |  |  |  | > 50 | > 50 | 39.3 |  |  |  | 
16 | C[C@@H]1C=C2C(=O)O[C@@H]3CC[C@H]([C@H]1O)[C@]23O | inactive |  |  |  |  | > 50 | > 50 | > 50 |  |  |  | 
17 | C=C1C(=O)O[C@@H]2CC[C@H](CF)[C@]12O |  |  |  |  |  | 22.6 | 23.4 | 7.91 |  |  |  | 
18 | C[C@H]1C=C2C(=O)O[C@@H]3CC[C@H](C1=O)[C@]23O | inactive |  |  |  |  | > 50 | > 50 | > 50 |  |  |  | 
19 | C=CC[C@H](O)[C@H]1CC[C@H]2OC(=O)C(=C)[C@@]12O | inactive |  |  |  |  | 44.1 | 43.6 | 27.4 |  |  |  | 
20 | C=C1C(=O)C[C@@H]2CC[C@H](CO)[C@]12O | inactive |  |  |  |  | > 50 | > 50 | 41.1 |  |  |  | 
21 | C=C1C(=O)O[C@@H]2CC[C@H](CCl)[C@]12O |  |  |  |  |  | > 50 | > 50 | > 50 |  |  |  | 
22 | CN[C@@H]1C[C@H]2O[C@@](C)([C@@H]1OC)n1c3ccccc3c3c4c(c5c6ccccc6n2c5c31)C(=O)NC4 [STAUROSPORINE] |  |  |  |  |  | 0.15 |  |  |  |  |  | 
23 | O=C1O[C@@H]2CC[C@@H]3[C@H](O)CC=C1[C@@]32O | inactive |  |  |  |  | > 50 | > 50 | > 50 |  |  |  | 
24 | C=CCC(=O)[C@H]1CC[C@H]2OC(=O)C(=C)[C@@]12O | inactive |  |  |  |  | 42.4 | 48.3 | 25.3 |  |  |  | 
25 | C=CC[C@@H](O)[C@H]1CC[C@H]2OC(=O)C(=C)[C@@]12O | inactive |  |  |  |  | > 50 | > 50 | 38.6 |  |  |  | 
26 | C[C@@H]1C=C2C(=O)O[C@@H]3CC[C@H](C1)[C@]23O | Active | Dose-dependent effect | inactive | inactive | inactive | 17.5 | 16.9 | 12.7 | Non-Toxic |  | 97 | 90
27 | C=C1C(=O)O[C@@H]2CC[C@H](CO)[C@H]12 | inactive |  |  |  |  | > 50 | > 50 | > 50 |  |  |  | 
